The source of these data is patent EP4741392A1, “1H-PYRAZOLO[4,3-C]PYRIDINE COMPOUND, AND COMPOSITION THEREOF AND USE THEREOF” (Shenzhen TargetRx Co., Ltd., priority 2023, dated 2025).

The structures appear in SMILES notation. Bounds are passed on as bounds.

The test system of one assay is NIH/3T3 BTK C481S cells. The assay is described as follows: Phosphor-BTK(Y223) assay, adherent cells. The format is cell-based. Particulars: Mus musculus, NIH3T3, phosphorylated BTK Y223, NIH/3T3 BTK C481S cells; read-out: NIH/3T3 BTK-C481S pBTK. In outline:
(§1)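 NIH/3T3 cells expressing WT or C481S BTK were pretreated with compound for 0.5 h at 37 °C, then stimulated with 1 mM Na3VO4 (final) for 2 h. Lysates were assayed by HTRF for p-BTK Y223 using the 665/620 nm ratio. IC50 was obtained by nonlinear fit of % inhibition versus 0.5% DMSO control.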

The next assay has as its system NIH/3T3 BTK WT cells. The assay is described as follows: Phosphor-BTK(Y223) assay, adherent cells. The assay is classed as cell-based. To be noted: Mus musculus, NIH3T3, phosphorylated BTK Y223, NIH/3T3 BTK WT cells; read-out: NIH/3T3 BTK-WT pBTK. The essentials: as §1

As for `CNC(=O)Cn1ccc(-c2cnc(-c3ccc(CNC(=O)c4cc(F)ccc4OC)cc3)c3c(N)n[nH]c23)n1` [Example 26, N-(4-(3-amino-7-(1-(2-(methylamino)-2-oxoethyl)-1H-pyrazol-3-yl)-1H-pyrazolo[4,3-c]pyridin-4-yl)benzyl)-5-fluoro-2-methoxybenzamide], the IC50 with NIH/3T3 BTK C481S cells and in the assay on NIH/3T3 BTK WT cells was 10 to 50 nM each time.
Regarding `COc1ccc(F)cc1C(=O)NCc1ccc(-c2ncc(-c3ccn(CC(F)(F)F)n3)c3[nH]nc(N)c23)cc1` [Example 28, N-(4-(3-amino-7-(1-(2,2,2-trifluoroethyl)-1H-pyrazol-3-yl)-1H-pyrazolo[4,3-c]pyridin-4-yl)benzyl)-5-fluoro-2-methoxybenzamide], the IC50 with NIH/3T3 BTK C481S cells is 10 to 50 nM; in the assay on NIH/3T3 BTK WT cells it was at most 5 nM.
On the same counts, the results for `COc1ccc(F)cc1C(=O)NCc1ccc(-c2ncc(-c3cn(C)cn3)c3[nH]nc(N)c23)cc1` [Example 30, N-(4-(3-amino-7-(1-methyl-1H-imidazol-4-yl)-1H-pyrazolo[4,3-c]pyridin-4-yl)benzyl)-5-fluoro-2-methoxybenzamide] are 5 to 10 nM and at most 5 nM.
Consider `COc1ccc(F)cc1C(=O)NCc1ccc(-c2ncc(-c3cc[nH]n3)c3[nH]nc(N)c23)cc1` [Example 31, N-(4-(3-amino-7-(1H-pyrazol-3-yl)-1H-pyrazolo[4,3-c]pyridin-4-yl)benzyl)-5-fluoro-2-methoxybenzamide], for which the IC50 in the assay with NIH/3T3 BTK C481S cells fell in the range of 10 to 50 nM; in the assay with NIH/3T3 BTK WT cells, 5 to 10 nM.
For `COc1ccc(F)cc1C(=O)NCc1ccc(-c2ncc(-c3ccc(S(C)(=O)=O)cn3)c3[nH]nc(N)c23)cc1` [Example 35, N-(4-(3-amino-7-(5-(methylsulfonyl)pyridin-2-yl)-1H-pyrazolo[4,3-c]pyridin-4-yl)benzyl)-5-fluoro-2-methoxybenzamide], in that order: at most 5 nM and at most 5 nM.
On the same counts, the results for `COc1ccc(F)cc1C(=O)NCc1ccc(-c2ncc(-c3ncc(F)cn3)c3[nH]nc(N)c23)cc1` [Example 36, N-(4-(3-amino-7-(5-fluoropyrimidin-2-yl)-1H-pyrazolo[4,3-c]pyridin-4-yl)benzyl)-5-fluoro-2-methoxybenzamide] are 5 to 10 nM and 5 to 10 nM.
With `COc1ccc(F)cc1C(=O)NCc1ccc(-c2ncc(-c3ccc(C)cn3)c3[nH]nc(N)c23)cc1` [Example 37, N-(4-(3-amino-7-(5-methylpyridin-2-yl)-1H-pyrazolo[4,3-c]pyridin-4-yl)benzyl)-5-fluoro-2-methoxybenzamide], the IC50 in the assay with NIH/3T3 BTK C481S cells and with NIH/3T3 BTK WT cells was at most 5 nM throughout.
Take `COc1ccc(F)cc1C(=O)NCc1ccc(-c2ncc(-c3ccc(Cl)cn3)c3[nH]nc(N)c23)cc1` [Example 38, N-(4-(3-amino-7-(5-chloropyridin-2-yl)-1H-pyrazolo[4,3-c]pyridin-4-yl)benzyl)-5-fluoro-2-methoxybenzamide]: the IC50 in the assay on NIH/3T3 BTK C481S cells and in the assay on NIH/3T3 BTK WT cells was at most 5 nM in each case.
Regarding `COc1ccc(F)cc1C(=O)NCc1ccc(-c2ncc(-c3ncc(C)cn3)c3[nH]nc(N)c23)cc1` [Example 39, N-(4-(3-amino-7-(5-methylpyrimidin-2-yl)-1H-pyrazolo[4,3-c]pyridin-4-yl)benzyl)-5-fluoro-2-methoxybenzamide], the IC50 with NIH/3T3 BTK C481S cells and in the assay with NIH/3T3 BTK WT cells was at most 5 nM each time.
In the case of `COc1ccc(F)cc1C(=O)NCc1ccc(-c2ncc(-c3ccc(OC(F)(F)F)cn3)c3[nH]nc(N)c23)cc1` [Example 41, N-(4-(3-amino-7-(5-(trifluoromethoxy)pyridin-2-yl)-1H-pyrazolo[4,3-c]pyridin-4-yl)benzyl)-5-fluoro-2-methoxybenzamide], the IC50 is 5 to 10 nM with NIH/3T3 BTK C481S cells and at most 5 nM with NIH/3T3 BTK WT cells.
Regarding `COc1ccc(F)cc1C(=O)NCc1ccc(-c2ncc(-c3ncc(C(F)(F)F)cn3)c3[nH]nc(N)c23)cc1` [Example 42, N-(4-(3-amino-7-(5-(trifluoromethyl)pyrimidin-2-yl)-1H-pyrazolo[4,3-c]pyridin-4-yl)benzyl)-5-fluoro-2-methoxybenzamide], the IC50 was 10 to 50 nM in the assay on NIH/3T3 BTK C481S cells and at most 5 nM in the assay with NIH/3T3 BTK WT cells.
On the same counts, the results for `COc1ccc(F)cc1C(=O)NCc1ccc(-c2ncc(-c3ccc(C4COC4)cn3)c3[nH]nc(N)c23)cc1` [Example 43, N-(4-(3-amino-7-(5-(oxetan-3-yl)pyridin-2-yl)-1H-pyrazolo[4,3-c]pyridin-4-yl)benzyl)-5-fluoro-2-methoxybenzamide] are at most 5 nM and at most 5 nM.
On to `COc1ccc(F)cc1C(=O)NCc1ccc(-c2ncc(-c3cc4ncccn4n3)c3[nH]nc(N)c23)cc1` [Example 44, N-(4-(3-amino-7-(pyrazolo[1,5-a]pyrimidin-2-yl)-1H-pyrazolo[4,3-c]pyridin-4-yl)benzyl)-5-fluoro-2-methoxybenzamide], for which the IC50 in the assay with NIH/3T3 BTK C481S cells and in the assay with NIH/3T3 BTK WT cells was at most 5 nM in each case.
For `CCOC(=O)c1cnc2cc(-c3cnc(-c4ccc(CNC(=O)c5cc(F)ccc5OC)cc4)c4c(N)n[nH]c34)nn2c1` [Example 45, ethyl 2-(3-amino-4-(4-((5-fluoro-2-methoxybenzoylamino)methyl)phenyl)-1H-pyrazolo[4,3-c]pyridin-7-yl)pyrazolo[1,5-a]pyrimidine-6-carboxylate], the IC50 in the assay with NIH/3T3 BTK C481S cells and with NIH/3T3 BTK WT cells was 10 to 50 nM in each case.
For `COc1ccc(F)cc1C(=O)NCc1ccc(-c2ncc(-c3ccn4nccc4n3)c3[nH]nc(N)c23)cc1` [Example 46, N-(4-(3-amino-7-(pyrazolo[1,5-a]pyrimidin-5-yl)-1H-pyrazolo[4,3-c]pyridin-4-yl)benzyl)-5-fluoro-2-methoxybenzamide], the results for the IC50 with NIH/3T3 BTK C481S cells and with NIH/3T3 BTK WT cells were 5 to 10 nM and at most 5 nM, respectively.
For `COc1ccc(F)cc1C(=O)NCc1ccc(-c2ncc(-c3ccc4cn[nH]c4n3)c3[nH]nc(N)c23)cc1` [Example 47, N-(4-(3-amino-7-(1H-pyrazolo[3,4-b]pyridin-6-yl)-1H-pyrazolo[4,3-c]pyridin-4-yl)benzyl)-5-fluoro-2-methoxybenzamide], the IC50 with NIH/3T3 BTK C481S cells is 10 to 50 nM; in the assay on NIH/3T3 BTK WT cells it was 5 to 10 nM.
On the same counts, the results for `COc1ccc(F)cc1C(=O)NCc1ccc(-c2ncc(-c3ccc(C(F)F)cn3)c3[nH]nc(N)c23)cc1` [Example 48, N-(4-(3-amino-7-(5-(difluoromethyl)pyridin-2-yl)-1H-pyrazolo[4,3-c]pyridin-4-yl)benzyl)-5-fluoro-2-methoxybenzamide] are at most 5 nM and at most 5 nM.
For `COc1ccc(F)cc1C(=O)NCc1ccc(-c2ncc(-c3cn4ccnc4cn3)c3[nH]nc(N)c23)cc1` [Example 50, N-(4-(3-amino-7-(imidazo[1,2-a]pyrazin-6-yl)-1H-pyrazolo[4,3-c]pyridin-4-yl)benzyl)-5-fluoro-2-methoxybenzamide], in that order: 5 to 10 nM and at most 5 nM.
On the same counts, the results for `COc1ccc(F)cc1C(=O)NCc1ccc(-c2ncc(-c3ccc4nccn4n3)c3[nH]nc(N)c23)cc1` [Example 51, N-(4-(3-amino-7-(imidazo[1,2-b]pyridazin-6-yl)-1H-pyrazolo[4,3-c]pyridin-4-yl)benzyl)-5-fluoro-2-methoxybenzamide] are 5 to 10 nM and at most 5 nM.
For `COc1ccc(F)cc1C(=O)NCc1ccc(-c2ncc(-c3ccc(C(=O)N4CCOCC4)cn3)c3[nH]nc(N)c23)cc1` [Example 52, N-(4-(3-amino-7-(5-(morpholine-4-carbonyl)pyridin-2-yl)-1H-pyrazolo[4,3-c]pyridin-4-yl)benzyl)-5-fluoro-2-methoxybenzamide], the IC50 in the assay with NIH/3T3 BTK C481S cells and in the assay with NIH/3T3 BTK WT cells was at most 5 nM throughout.
Turning to `COc1ccc(F)cc1C(=O)NCc1ccc(-c2ncc(-c3ccc(C(=O)N4C[C@H](C)O[C@@H](C)C4)cn3)c3[nH]nc(N)c23)cc1` [Example 53, N-(4-(3-amino-7-(5-((2S,6S)-2,6-dimethylmorpholine-4-carbonyl)pyridin-2-yl)-1H-pyrazolo[4,3-c]pyridin-4-yl)benzyl)-5-fluoro-2-methoxybenzamide], the IC50 in the assay on NIH/3T3 BTK C481S cells and with NIH/3T3 BTK WT cells was at most 5 nM each time.
With `COc1ccc(F)cc1C(=O)NCc1ccc(-c2ncc(-c3ccc(C(=O)N4C[C@@H](C)O[C@H](C)C4)cn3)c3[nH]nc(N)c23)cc1` [Example 54, N-(4-(3-amino-7-(5-((2R,6R)-2,6-dimethylmoroholine-4-carbonyl)pyridin-2-yl)-1H-pyrazolo[4,3-c]pyridin-4-yl)benzyl)-5-fluoro-2-methoxybenzamide], the IC50 in the assay with NIH/3T3 BTK C481S cells and with NIH/3T3 BTK WT cells was at most 5 nM in each case.
Consider `COc1ccc(F)cc1C(=O)NCc1ccc(-c2ncc(-c3ccc(P(C)(C)=O)cn3)c3[nH]nc(N)c23)cc1` [Example 56, N-(4-(3-amino-7-(5-(dimethylphosphoryl)pyridin-2-yl)-1H-pyrazolo[4,3-c]pyridin-4-yl)benzyl)-5-fluoro-2-methoxybenzamide], for which the IC50 in the assay with NIH/3T3 BTK C481S cells and in the assay on NIH/3T3 BTK WT cells was over 50 nM each time.
Consider `COc1ccc(F)cc1C(=O)NCc1ccc(-c2ncc(-c3nc4cnccn4n3)c3[nH]nc(N)c23)cc1` [Example 57, N-(4-(7-([1,2,4]triazolo[1,5-a]pyrazin-2-yl)-3-amino-1H-pyrazolo[4,3-c]pyridin-4-yl)benzyl)-5-fluoro-2-methoxybenzamide], for which the IC50 in the assay with NIH/3T3 BTK C481S cells was 5 to 10 nM; in the assay on NIH/3T3 BTK WT cells, at most 5 nM.
Turning to `COc1ccc(F)cc1C(=O)NCc1ccc(-c2ncc(-c3nc4ccccn4n3)c3[nH]nc(N)c23)cc1` [Example 58, N-(4-(7-([1,2,4]triazolo[1,5-a]pyridin-2-yl)-3-amino-1H-pyrazolo[4,3-c]pyridin-4-yl)benzyl)-5-fluoro-2-methoxybenzamide], the IC50 with NIH/3T3 BTK C481S cells and with NIH/3T3 BTK WT cells was at most 5 nM throughout.
